Active and inactive are the calls of the source. The rule behind the calls is not given here.
What was measured:
PC-3 = experiment: Antiproliferative activity against human PC-3 cells assessed as cell growth inhibition incubated for 72 hrs by MTT assay; format: functional
A549 [1] = experiment: Induction of apoptosis in human A549 cells assessed as early apoptotic cells at 10 uM incubated for 48 hrs by Annexin V-FITC/PI staining based flow cytometry analysis (reference value: 0.708%); format: functional
A549 [2] = experiment: Induction of apoptosis in human A549 cells assessed as late apoptotic cells at 10 uM incubated for 48 hrs by Annexin V-FITC/PI staining based flow cytometry analysis (reference value: 2.15%); format: functional
A549 [3] = experiment: Induction of apoptosis in human A549 cells assessed as dead cells at 10 uM incubated for 48 hrs by Annexin V-FITC/PI staining based flow cytometry analysis (reference value: 0.739%); format: functional
NCI-H1581 = experiment: Antiproliferative activity against human NCI-H1581 cells expressing BAX assessed as cell growth inhibition incubated for 72 hrs by MTT assay; format: functional
MDA-MB-231 = experiment: Antiproliferative activity against human MDA-MB-231 cells expressing BAX assessed as cell growth inhibition incubated for 72 hrs by MTT assay; format: functional
MV4-11 = experiment: Antiproliferative activity against human MV4-11 cells expressing BAX assessed as cell growth inhibition incubated for 72 hrs by trypan blue cell counting analysis; format: functional
THP-1 = experiment: Antiproliferative activity against human THP-1 cells expressing BAX assessed as cell growth inhibition incubated for 72 hrs by trypan blue cell counting analysis; format: functional
A549 [4] = experiment: Inhibition of colony formation in human A549 cells incubated for 2 weeks by crystal violet staining based analysis; format: functional, cell-based; settings: dose 1-3 µM
A549 [5] = experiment: Inhibition of colony formation in human A549 cells at 3 uM incubated for 2 weeks by crystal violet staining based analysis relative to control; format: functional; settings: A549, 336 h
A549 [6] = experiment: Induction of apoptosis in human A549 cells assessed as live cells at 5 uM incubated for 48 hrs by Annexin V-FITC/PI staining based flow cytometry analysis (reference value: 95.9 %); format: functional
A549 [7] = experiment: Induction of apoptosis in human A549 cells assessed as late apoptotic cells at 5 uM incubated for 48 hrs by Annexin V-FITC/PI staining based flow cytometry analysis (reference value: 2.52%); format: functional
A549 [8] = experiment: Induction of apoptosis in human A549 cells assessed as live cells at 10 uM incubated for 48 hrs by Annexin V-FITC/PI staining based flow cytometry analysis (reference value: 95.9 %); format: functional
A549 [9] = experiment: Induction of apoptosis in human A549 cells assessed as early apoptotic cells at 10 uM incubated for 48 hrs by Annexin V-FITC/PI staining based flow cytometry analysis (reference value: 1.09 %); format: functional
A549 [10] = experiment: Induction of apoptosis in human A549 cells assessed as late apoptotic cells at 10 uM incubated for 48 hrs by Annexin V-FITC/PI staining based flow cytometry analysis (reference value: 2.52%); format: functional
A549 [11] = experiment: Induction of apoptosis in human A549 cells assessed as total apoptotic cells at 5 uM incubated for 48 hrs by Annexin V-FITC/PI staining based flow cytometry analysis (reference value: 4.26%); format: functional
A549 [12] = experiment: Induction of cell cycle arrest in human A549 cells assessed as accumulation of cells at G0/G1 phase at 5 uM incubated for 48 hrs by RNase/PI staining based flow cytometry analysis (reference value: 54.82%); format: functional
A549 [13] = experiment: Induction of cell cycle arrest in human A549 cells assessed as accumulation of cells at S phase at 5 uM incubated for 48 hrs by RNase/PI staining based flow cytometry analysis (reference value: 26.01%); format: functional
A549 [14] = experiment: Induction of cell cycle arrest in human A549 cells assessed as accumulation of cells at G2/M phase at 2.5 uM incubated for 48 hrs by RNase/PI staining based flow cytometry analysis (reference value: 18.97%); format: functional
[15] = biological target: Apoptosis regulator BAX (Homo sapiens) (UniProt Q07812); experiment: Activation of BAX in human A549 cells at 20 uM incubated for 24 hrs by NP-40 based immunoprecipitation analysis; format: cell-based; settings: filed as activator
[16] = biological target: Apoptosis regulator BAX (Homo sapiens) (UniProt Q07812); experiment: Activation of BAX in human A549 cells assessed as protein translocation by measuring increase in BAX protein level in mitochondrial fraction incubated for 24 hrs by Western blot analysis; format: mitochondria; settings: filed as activator, dose 5-40 µM
[17] = biological target: Apoptosis regulator BAX (Homo sapiens) (UniProt Q07812); experiment: Activation of BAX in human A549 cells assessed as increase in cytochrome-c release incubated for 24 hrs by Western blot analysis; format: cell-based; settings: filed as activator, dose 5-40 µM
[18] = Metabolic stability in human liver microsomes assessed as parent compound remaining at 100 uM incubated for 60 mins in presence of NADPH by LC-MS/MS analysis
[19] = Metabolic stability in mouse liver microsomes assessed as parent compound remaining at 100 uM incubated for 60 mins in absence of NADPH by LC-MS/MS analysis
[20] = Stability in rat plasma assessed as compound remaining measured immediately; format: ADME, cell-free; settings: read-out: Stability
[21] = Stability in rat plasma assessed as compound remaining measured after 10 mins; format: ADME, cell-free; settings: read-out: Stability
[22] = Stability in rat plasma assessed as compound remaining measured after 30 mins; format: ADME, cell-free; settings: read-out: Stability
[23] = Stability in rat plasma assessed as half life; format: ADME, cell-free
[24] = Drug recovery in human liver microsomes at 100 uM incubated for 60 mins in absence of NADPH by LC-MS/MS analysis; format: ADME, Microsome; settings: read-out: Drug recovery
Cytochrome P450 2C9 = Cytochrome P450 2C9 (Homo sapiens, UniProt P11712); experiment: Inhibition of CYP2C9 in human liver microsomes using diclofenac as substrate prewarmed for 10 mins followed by NADPH addition and measured after 10 mins by LC-MS/MS analysis
Cytochrome P450 2C19 = Cytochrome P450 2C19 (Homo sapiens, UniProt P33261); experiment: Inhibition of CYP2C19 in human liver microsomes using S-mephenytoin as substrate prewarmed for 10 mins followed by NADPH addition and measured after 10 mins by LC-MS/MS analysis
Cytochrome P450 2D6 = Cytochrome P450 2D6 (Homo sapiens, UniProt P10635); experiment: Inhibition of CYP2D6 in human liver microsomes using dextromethorphan as substrate prewarmed for 10 mins followed by NADPH addition and measured after 10 mins by LC-MS/MS analysis
Cytochrome P450 3A4 = Cytochrome P450 3A4 (Homo sapiens, UniProt P08684); experiment: Inhibition of CYP3A4 in human liver microsomes using midazolam as substrate prewarmed for 10 mins followed by NADPH addition and measured after 10 mins by LC-MS/MS analysis
[25] = human, microsomes, 1 h, 100 µM
[26] = human, 1 h, 100 µM
[27] = mouse, microsomes, 1 h, 100 µM
[28] = mouse, 1 h, 100 µM
in vitro [29] = settings: human, liver microsomes
in vitro [30] = settings: mouse, liver microsomes

Apoptosis regulator BAX (Homo sapiens), sequence (Q07812 whole entry): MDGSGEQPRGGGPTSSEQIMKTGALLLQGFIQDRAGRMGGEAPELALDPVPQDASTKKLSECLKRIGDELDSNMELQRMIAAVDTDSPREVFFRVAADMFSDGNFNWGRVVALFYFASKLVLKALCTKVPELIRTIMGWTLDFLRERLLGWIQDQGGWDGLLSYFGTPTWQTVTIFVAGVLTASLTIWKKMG
Cytochrome P450 2D6, sequence (P10635 whole entry): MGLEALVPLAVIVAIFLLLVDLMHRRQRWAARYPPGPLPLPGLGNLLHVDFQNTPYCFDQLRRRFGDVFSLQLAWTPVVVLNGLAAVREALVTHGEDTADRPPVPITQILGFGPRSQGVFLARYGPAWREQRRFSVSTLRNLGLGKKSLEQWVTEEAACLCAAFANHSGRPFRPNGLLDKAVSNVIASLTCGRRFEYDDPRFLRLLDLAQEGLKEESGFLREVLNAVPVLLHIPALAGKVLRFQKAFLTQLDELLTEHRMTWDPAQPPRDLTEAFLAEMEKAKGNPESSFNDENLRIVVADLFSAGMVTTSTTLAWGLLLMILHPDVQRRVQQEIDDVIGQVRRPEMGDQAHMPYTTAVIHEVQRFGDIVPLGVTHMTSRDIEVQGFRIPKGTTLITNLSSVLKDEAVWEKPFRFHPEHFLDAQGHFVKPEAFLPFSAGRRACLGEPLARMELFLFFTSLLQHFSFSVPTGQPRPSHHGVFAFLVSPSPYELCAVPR
Cytochrome P450 2C19, sequence (P33261 whole entry): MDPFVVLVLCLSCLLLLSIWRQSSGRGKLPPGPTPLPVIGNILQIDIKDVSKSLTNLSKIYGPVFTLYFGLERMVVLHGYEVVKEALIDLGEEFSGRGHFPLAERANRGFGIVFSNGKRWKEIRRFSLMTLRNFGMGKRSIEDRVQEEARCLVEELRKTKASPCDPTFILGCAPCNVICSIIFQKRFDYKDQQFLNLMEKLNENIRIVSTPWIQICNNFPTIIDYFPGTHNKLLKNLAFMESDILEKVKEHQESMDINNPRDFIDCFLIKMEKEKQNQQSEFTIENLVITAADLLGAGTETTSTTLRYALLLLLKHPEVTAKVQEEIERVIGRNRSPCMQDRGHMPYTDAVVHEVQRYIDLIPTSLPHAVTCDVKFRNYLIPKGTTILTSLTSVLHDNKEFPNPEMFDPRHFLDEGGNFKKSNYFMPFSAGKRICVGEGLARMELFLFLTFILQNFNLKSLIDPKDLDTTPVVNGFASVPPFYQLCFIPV
Cytochrome P450 2C9, sequence (P11712 whole entry): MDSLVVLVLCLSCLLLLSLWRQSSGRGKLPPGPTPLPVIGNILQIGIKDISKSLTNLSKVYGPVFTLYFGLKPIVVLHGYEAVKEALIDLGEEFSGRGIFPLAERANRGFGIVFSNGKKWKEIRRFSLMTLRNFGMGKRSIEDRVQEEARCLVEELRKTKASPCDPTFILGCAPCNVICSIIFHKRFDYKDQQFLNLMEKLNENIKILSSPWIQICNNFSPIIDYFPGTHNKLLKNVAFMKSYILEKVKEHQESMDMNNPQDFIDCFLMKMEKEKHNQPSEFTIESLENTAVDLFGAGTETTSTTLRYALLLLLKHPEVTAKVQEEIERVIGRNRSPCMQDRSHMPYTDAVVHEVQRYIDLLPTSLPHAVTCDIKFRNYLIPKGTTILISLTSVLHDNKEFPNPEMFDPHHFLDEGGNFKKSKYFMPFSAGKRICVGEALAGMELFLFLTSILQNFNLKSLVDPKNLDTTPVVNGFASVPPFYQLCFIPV
Cytochrome P450 3A4, sequence (P08684 whole entry): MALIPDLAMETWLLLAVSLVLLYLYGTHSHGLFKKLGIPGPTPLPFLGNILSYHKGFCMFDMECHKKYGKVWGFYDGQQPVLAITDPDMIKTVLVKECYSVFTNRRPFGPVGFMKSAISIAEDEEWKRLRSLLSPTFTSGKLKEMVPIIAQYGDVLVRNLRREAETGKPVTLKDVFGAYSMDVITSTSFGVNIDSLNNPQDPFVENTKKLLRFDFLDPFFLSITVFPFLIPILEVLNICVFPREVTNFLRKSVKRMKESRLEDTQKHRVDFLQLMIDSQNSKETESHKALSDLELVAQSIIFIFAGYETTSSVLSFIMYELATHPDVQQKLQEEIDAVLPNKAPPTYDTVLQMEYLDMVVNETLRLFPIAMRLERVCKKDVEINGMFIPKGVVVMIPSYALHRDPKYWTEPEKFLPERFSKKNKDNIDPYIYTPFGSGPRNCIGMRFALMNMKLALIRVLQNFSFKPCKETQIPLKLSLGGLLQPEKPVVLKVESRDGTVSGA

With `CN(C)C1CCN(C(=O)c2ccc(N3N=C(c4ccccc4)/C(=N/Nc4ccccc4)C3=O)cc2)CC1` the GI50 (PC-3) was 2500 nM, the Activity (A549 [1]) was 71.2% and the Activity (A549 [2]) was 22.5%. The Activity (A549 [3]) was 0.535%, the GI50 (NCI-H1581) was 2150 nM and the GI50 (MDA-MB-231) was 3980 nM. The GI50 (MV4-11) was 2840 nM, the GI50 (THP-1) was 2180 nM and the inhibition (A549 [4]) was “Dose-Dependent Effect”. For the same molecule, the inhibition at 3 µM (A549 [5]) was greater than 50%, the Activity (A549 [6]) was 84.2% and the Activity (A549 [7]) was 4.83%. It also gave an Activity (A549 [8]) of 26.1%, an Activity (A549 [9]) of 55% and an Activity (A549 [10]) of 18.4%. It also gave an Activity (A549 [11]) of 15.43%, an Activity (A549 [12]) of 63.73% and an Activity (A549 [13]) of 27.84%. The Activity (A549 [14]) was 16.48%, the Activity [15] was “Active” and the Activity [16] was “Dose-Dependent Effect”. For the same molecule, the Activity [17] was “Dose-Dependent Effect”, the remaining at 1 h, 100 µM [18] was 97.9% and the remaining at 1 h, 100 µM [19] was 96%. It also gave a remaining at 0 min [20] of 100%, a remaining at 10 min [21] of 99.4% and a remaining at 0.5 h [22] of 99.1%. It also gave a half-life [23] greater than 4.82 h, a remaining at 1 h, 100 µM [24] of 102% and an IC50 (Cytochrome P450 2C9) greater than 50000 nM. For the same molecule, the IC50 (Cytochrome P450 2C19) was greater than 50000 nM, the IC50 (Cytochrome P450 2D6) was greater than 50000 nM and the IC50 (Cytochrome P450 3A4) was greater than 50000 nM. It also gave a CLint [25] of less than 9.6 µL/min/mg, a CLH [26] of less than 8.6 mL/min/kg and a CLint [27] of less than 9.6 µL/min/mg. For the same molecule, the CLH [28] was less than 0.038 mL/min/kg, the half-life at 1 h, 100 µM (in vitro [29]) was greater than 2.42 h and the half-life at 1 h, 100 µM (in vitro [30]) was greater than 2.42 h.

From ChEMBL document CHEMBL5325413, “Optimization of BAX trigger site activator BTSA1 with improved antitumor potency and in vitro ADMET properties” (Eur J Med Chem, 2023)
